Measured values published in publication PMC12284876 (RSC Advances, 2025).

Biological target: α-glucosidase from Saccharomyces cerevisiae (Saccharomyces cerevisiae, UniProt P53341)
Assay: α-Glucosidase inhibitory assay
Assay type: biochemical
Details: mean ± standard error, n = 3; for Inhibition (I, %) 10 μM: compound at 10 μM; for Inhibition (I, %) 10 μM / Inhibition (I, %) 25 μM: series 250–10 μM; for Inhibition (I, %) 25 μM: compound at 25 μM; for Inhibition (I, %) 50 μM: compound at 50 μM; for Inhibition (I, %) 100 μM: compound at 100 μM; for Inhibition (I, %) 250 μM: compound at 250 μM

Chain of α-glucosidase from Saccharomyces cerevisiae (P53341 whole entry): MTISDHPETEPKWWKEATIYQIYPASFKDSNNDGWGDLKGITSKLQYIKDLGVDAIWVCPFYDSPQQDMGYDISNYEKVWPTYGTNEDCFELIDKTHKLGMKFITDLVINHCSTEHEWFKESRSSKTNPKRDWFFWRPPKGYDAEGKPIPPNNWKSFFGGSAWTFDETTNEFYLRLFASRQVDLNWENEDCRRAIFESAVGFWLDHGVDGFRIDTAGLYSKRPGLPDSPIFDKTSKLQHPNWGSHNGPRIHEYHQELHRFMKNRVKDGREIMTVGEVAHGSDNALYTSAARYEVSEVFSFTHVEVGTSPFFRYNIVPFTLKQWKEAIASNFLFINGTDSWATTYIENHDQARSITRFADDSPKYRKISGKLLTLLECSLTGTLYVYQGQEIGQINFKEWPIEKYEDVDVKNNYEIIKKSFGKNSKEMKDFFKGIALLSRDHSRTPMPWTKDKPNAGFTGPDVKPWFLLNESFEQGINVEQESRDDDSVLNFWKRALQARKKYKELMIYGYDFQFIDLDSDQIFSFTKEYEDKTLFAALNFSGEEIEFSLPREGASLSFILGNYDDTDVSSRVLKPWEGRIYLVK

SMILES | Inhibition (I, %) 10 μM | Inhibition (I, %) 25 μM | Inhibition (I, %) 50 μM | Inhibition (I, %) 100 μM | Inhibition (I, %) 250 μM
C[C@H]1O[C@H](O[C@H]2[C@H](O)[C@@H](O)[C@@H](O[C@H]3[C@H](O)[C@@H](O)C(O)O[C@@H]3CO)O[C@@H]2CO)[C@H](O)[C@@H](O)[C@@H]1N[C@H]1C=C(CO)[C@@H](O)[C@H](O)[C@H]1O (stereo partly shown) [Acarbose] | 5.45 ± 0.68% | 9.3 ± 1.2% | 21.0 ± 1.6% | 26.8 ± 1.0% | 63.8 ± 1.0%
O=c1c(O)c(-c2ccc(O)cc2)oc2cc(O)cc(O)c12 [Compound 8, kaempferol] | 8.6 ± 1.4% | 44.1 ± 2.9% | 84.9 ± 1.1% | 98.5 ± 2.2% | ^b (Inhibition > 99%)
